# Experimental data taken from PMC5727842, “Antioxidant and Antidiabetic Effects of Flavonoids: A Structure-Activity Relationship Based Study” (BioMed Research International, 2017).
# Key:
# [1] = target: T1, xanthine oxidase from buttermilk (Bos taurus, UniProt P80457); assay: Xanthine oxidase inhibitory assay (XOI); format: biochemical; conditions: for xanthine oxidase inhibitory effect (in words): discussion; for IC50: xanthine oxidase inhibition, 295 nm, mean ± SEM (n = 3), NA: not active
# T1 construct: 0.3 U/mL enzymes (xanthine oxidase from buttermilk); purchased Sigma-Aldrich (Singapore); host or cells: buttermilk (natural source)
# T1 sequence (P80457 whole entry): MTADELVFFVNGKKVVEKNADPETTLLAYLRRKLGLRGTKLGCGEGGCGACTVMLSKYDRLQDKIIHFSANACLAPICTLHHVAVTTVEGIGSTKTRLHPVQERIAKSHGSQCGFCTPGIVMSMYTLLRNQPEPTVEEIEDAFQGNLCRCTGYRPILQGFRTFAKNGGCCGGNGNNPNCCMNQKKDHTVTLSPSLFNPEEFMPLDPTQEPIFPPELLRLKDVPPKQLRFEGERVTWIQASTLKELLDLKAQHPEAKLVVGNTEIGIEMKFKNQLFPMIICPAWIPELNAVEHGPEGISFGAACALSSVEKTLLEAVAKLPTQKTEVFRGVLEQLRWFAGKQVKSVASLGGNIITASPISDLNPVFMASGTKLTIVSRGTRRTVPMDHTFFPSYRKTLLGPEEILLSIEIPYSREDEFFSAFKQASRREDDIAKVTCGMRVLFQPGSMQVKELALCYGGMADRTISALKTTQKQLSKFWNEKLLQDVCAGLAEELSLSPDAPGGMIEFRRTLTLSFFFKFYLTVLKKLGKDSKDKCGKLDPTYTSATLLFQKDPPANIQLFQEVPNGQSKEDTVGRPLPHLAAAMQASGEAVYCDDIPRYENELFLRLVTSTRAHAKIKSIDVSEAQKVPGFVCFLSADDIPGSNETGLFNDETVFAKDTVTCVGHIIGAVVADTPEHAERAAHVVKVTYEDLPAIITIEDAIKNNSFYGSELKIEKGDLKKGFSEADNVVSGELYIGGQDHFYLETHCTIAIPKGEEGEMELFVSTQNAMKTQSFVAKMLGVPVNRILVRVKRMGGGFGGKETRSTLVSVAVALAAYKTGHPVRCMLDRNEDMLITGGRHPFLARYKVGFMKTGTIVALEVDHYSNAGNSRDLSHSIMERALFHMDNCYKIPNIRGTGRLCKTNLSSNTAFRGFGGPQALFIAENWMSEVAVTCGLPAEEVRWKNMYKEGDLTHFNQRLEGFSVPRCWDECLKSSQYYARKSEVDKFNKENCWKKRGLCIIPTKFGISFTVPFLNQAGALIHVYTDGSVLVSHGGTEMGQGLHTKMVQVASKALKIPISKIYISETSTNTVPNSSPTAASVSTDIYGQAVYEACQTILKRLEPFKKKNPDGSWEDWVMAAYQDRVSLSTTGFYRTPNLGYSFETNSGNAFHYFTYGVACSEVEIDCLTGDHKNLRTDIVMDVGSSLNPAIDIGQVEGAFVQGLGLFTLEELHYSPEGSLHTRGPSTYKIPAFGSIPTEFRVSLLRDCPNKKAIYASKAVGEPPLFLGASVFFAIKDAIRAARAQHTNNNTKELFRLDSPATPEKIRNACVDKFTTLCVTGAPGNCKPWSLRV
# Description: XO catalyzes the oxidation of hypoxanthine to xanthine and subsequently to uric acid. The inhibition of XO reduces both vascular oxidative stress and circulating levels of uric acid. This assay is based on the fact that the superoxide anions are generated by the xanthine. The xanthine oxidase inhibitory activity was measured spectrophotometrically (Tecan NanoQuant Infinite M200, Switzerland) at 295 nm under aerobic condition with slight modification. The reaction mixture contained 50 mM phosphate buffer (pH 7.5), 0.15 mM xanthine (substrate), and 0.3 U/mL enzymes (xanthine oxidase from buttermilk). Samples were prepared by dissolving 1 mg in 5% DMSO in MeOH which gives sample concentration of 144.0 μg/mL in assay. […] The absorption increment at 295 nm indicates the formation of […] of uric acid/min at 25°C. […] All determination was done in triplicate and half maximal concentration (IC50) values were calculated from the percentage of inhibition. XO inhibition activity was expressed as the percentage inhibition of XO as follows:(3) % of inhibition=AbsA−B−C−D/AbsA−B×100, where A is the negative control with B as the blank of A which is without the enzyme and the sample while C is the activity of the sample with enzyme with D as the blank of the sample without enzyme.
# [2] = target: T2, DPP-4 (Homo sapiens, UniProt P27487); assay: Dipeptidyl peptidase IV (DPP-4) inhibitory assay; format: biochemical; conditions: Table 3; mean ± SEM (n = 3); NA: not active
# T2 construct: purchased Cayman (Michigan, USA)
# T2 sequence (P27487 whole entry): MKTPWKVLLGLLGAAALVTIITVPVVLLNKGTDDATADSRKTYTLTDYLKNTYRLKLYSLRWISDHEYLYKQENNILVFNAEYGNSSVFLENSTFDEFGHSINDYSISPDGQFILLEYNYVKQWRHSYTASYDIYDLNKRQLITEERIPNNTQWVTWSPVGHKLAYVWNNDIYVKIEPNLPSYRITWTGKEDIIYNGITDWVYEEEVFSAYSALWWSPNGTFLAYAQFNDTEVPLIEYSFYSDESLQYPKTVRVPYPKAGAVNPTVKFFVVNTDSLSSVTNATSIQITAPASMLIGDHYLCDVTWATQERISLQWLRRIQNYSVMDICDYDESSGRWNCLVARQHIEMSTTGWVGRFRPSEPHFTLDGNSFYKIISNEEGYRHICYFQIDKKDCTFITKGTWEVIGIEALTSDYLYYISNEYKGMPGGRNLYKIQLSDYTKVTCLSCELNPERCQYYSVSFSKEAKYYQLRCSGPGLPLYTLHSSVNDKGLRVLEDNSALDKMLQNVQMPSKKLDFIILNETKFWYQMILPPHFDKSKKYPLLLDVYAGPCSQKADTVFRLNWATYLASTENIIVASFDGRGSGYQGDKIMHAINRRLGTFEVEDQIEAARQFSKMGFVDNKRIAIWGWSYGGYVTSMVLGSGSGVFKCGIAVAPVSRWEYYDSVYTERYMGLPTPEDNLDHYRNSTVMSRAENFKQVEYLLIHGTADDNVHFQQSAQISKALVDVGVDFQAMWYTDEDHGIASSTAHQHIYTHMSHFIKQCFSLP
# Description: Dipeptidyl peptidase (IV) inhibitors work by inhibiting the action of this enzyme, thereby prolonging the activity of incretins that play an important role in insulin secretion and blood glucose control regulation. DPP-4 inhibitory assay was performed as per the standard method (Cayman, USA). Firstly, 1 mg of sample was dissolved in 10% of DMSO and MeOH as the stock solution. For initial activity (100%), 10 μL of MeOH, 30 μL of diluted assay buffer, and 10 μL of diluted DPP-4 (Cayman, USA) were added to 96-well microplate. […] For background well, 10 μL of MeOH and 40 μL of diluted assay buffer were added. Then, 10 μL of prepared sample and 30 μL of diluted assay buffer were added with 10 μL of diluted DPP-4. After that, 50 μL of substrate solution was added to all wells to initiate the reaction and further incubated in the dark at 37°C for 30 min. Finally, plate was read at 360 nm of excitation wavelength and 465 nm of emission wavelength using fluorescence microplate reader (Perkin Elmer, Germany). All determinations were done in triplicate and half maximal concentration (IC50) values were calculated from the percentage of inhibition based on the linear regression analysis. The equation given below was applied to calculate the inhibitory activity (%):(5) Inhibitory activity%=Initial Activity−Sample/Initial Activity×100%.
# For DPP-4 inhibitory assay, the reaction is based on the cleavage of the peptide bond by DPP releasing the free Gly-Pro-aminomethylcoumarin group, a fluorogenic substrate resulting in fluorescence excitation and emission.
SMILES,xanthine oxidase inhibitory effect (in words) [1],IC50 [1] [µM],IC50 [2] [µM]
"COc1cc(O)c2c(=O)cc(-c3ccccc3)oc2c1 [Techtochrysin, 5-Hydroxy-7-methoxyflavone]",low xanthine oxidase inhibitory activity,> 373,> 373
"O=c1cc(-c2ccc(O)c(O)c2)oc2c(O)c(O)cc(O)c12 [Hypolaetin, 3′,4′,5,7,8-Pentahydroxyflavone]",low xanthine oxidase inhibitory activity,> 331,115
